Test results published in ChEMBL document CHEMBL1132600 (J Med Chem, 1999).

Molecular target: Cannabinoid receptor 1 (Rattus norvegicus, UniProt P20272)
Assay: Tested for binding affinity to Cannabinoid receptor 1

Sequence of Cannabinoid receptor 1 (P20272 whole entry): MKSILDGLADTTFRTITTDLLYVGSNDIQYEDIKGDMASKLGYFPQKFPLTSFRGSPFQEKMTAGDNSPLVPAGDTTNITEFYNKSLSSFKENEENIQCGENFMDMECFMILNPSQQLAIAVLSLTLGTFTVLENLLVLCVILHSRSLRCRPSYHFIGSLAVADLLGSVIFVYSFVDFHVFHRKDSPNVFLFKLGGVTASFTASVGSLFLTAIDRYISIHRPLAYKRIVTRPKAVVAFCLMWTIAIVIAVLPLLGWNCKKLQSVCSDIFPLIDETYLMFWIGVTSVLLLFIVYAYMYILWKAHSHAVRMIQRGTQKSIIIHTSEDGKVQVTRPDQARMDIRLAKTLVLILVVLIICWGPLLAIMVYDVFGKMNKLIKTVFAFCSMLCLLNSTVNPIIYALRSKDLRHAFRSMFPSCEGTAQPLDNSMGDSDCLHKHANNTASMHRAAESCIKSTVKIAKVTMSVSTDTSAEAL

SMILES: CCCCC/C=C\C/C=C\C/C=C\C/C=C\CCCC(=O)N(C)CCO
- Ki: 4980 nM

SMILES: CCCCC/C=C\C/C=C\C/C=C\C/C=C\CCCC(=O)NC[C@@H](C)O
- Ki: 119 nM

SMILES: CCCCC/C=C\C/C=C\C/C=C\C/C=C\CCCC(=O)NC[C@H](C)O
- Ki: 26 nM

SMILES: CCCCCCCCCCCCCCCCCC(=O)NCCO [N-(2-HYDROXYETHYL)STEARAMIDE]
- Ki: 217 nM

SMILES: CCCCC/C=C\C/C=C\CCCCCCCC(=O)N[C@@H](C)CO
- Ki: > 10000 nM

SMILES: CCCCC/C=C\C/C=C\C/C=C\C/C=C\CCCC(=O)NC(C)(C)CO
- Ki: 151 nM

SMILES: CCCCCCCC/C=C\CCCCCCCC(=O)N[C@@H](C)CO
- Ki: > 10000 nM

SMILES: CCCCC/C=C\C/C=C\C/C=C\C/C=C\CCCC(N)=O [ARACHIDONAMIDE]
- Ki: 9600 nM

SMILES: CCCCC/C=C\C/C=C\C/C=C\C/C=C\CCCC(=O)Nc1ccc(CO)cc1
- Ki: > 3000 nM

SMILES: CCCCCCCC/C=C\CCCCCCCC(=O)NCCO [OLEOYLETHANOLAMIDE]
- Ki: > 10000 nM

SMILES: CCCCC/C=C\C/C=C\C/C=C\C/C=C\CCC(C)(C)C(=O)NCCO
- Ki: 72.2 nM

SMILES: CCCCC/C=C\C/C=C\C/C=C\C/C=C\CCCC(=O)NC1CCC(O)CC1 (stereo not drawn)
- Ki: 217 nM

SMILES: CCCCC/C=C\C/C=C\C/C=C\C/C=C\CCCC(=O)NCCF
- Ki: 8.6 nM
